Each structure is given as a SMILES string. Counter-ions that a name gives are not always drawn.

Sequence of purified human Factor XIa (P03951 388-625): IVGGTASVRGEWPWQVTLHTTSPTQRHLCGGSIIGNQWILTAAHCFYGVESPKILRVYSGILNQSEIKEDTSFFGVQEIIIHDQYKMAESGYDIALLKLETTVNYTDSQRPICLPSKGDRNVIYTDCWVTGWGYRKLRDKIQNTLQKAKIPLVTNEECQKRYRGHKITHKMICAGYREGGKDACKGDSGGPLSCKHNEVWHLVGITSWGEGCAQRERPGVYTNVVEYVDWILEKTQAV
Sequence of purified human Factor XIa (P03951 19-387 partner): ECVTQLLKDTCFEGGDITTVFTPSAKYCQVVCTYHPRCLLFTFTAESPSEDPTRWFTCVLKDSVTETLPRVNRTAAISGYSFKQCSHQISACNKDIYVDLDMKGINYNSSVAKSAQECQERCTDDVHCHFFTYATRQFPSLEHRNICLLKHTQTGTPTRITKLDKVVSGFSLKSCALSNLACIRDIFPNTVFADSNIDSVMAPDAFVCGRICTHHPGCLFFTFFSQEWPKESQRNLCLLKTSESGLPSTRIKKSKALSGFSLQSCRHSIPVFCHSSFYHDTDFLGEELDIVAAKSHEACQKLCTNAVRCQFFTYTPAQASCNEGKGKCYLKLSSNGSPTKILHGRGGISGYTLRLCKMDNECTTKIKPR

The first experiment has as its target purified human Factor XIa (Homo sapiens (Human), UniProt P03951). Description: Factor XIa chromogenic substrate (S-2366) inhibition assay. It counts as biochemical. Particulars: substrate S-2366, Table 1. How it is done: The effectiveness of compounds of the present invention as inhibitors of the coagulation factors XIa, VIIa, IXa, Xa, XIIa, plasma kallikrein or thrombin, can be determined using a relevant purified serine protease, respectively, and an appropriate synthetic substrate. The rate of hydrolysis of the chromogenic or fluorogenic substrate by the relevant serine protease was measured both in the absence and presence of compounds of the present invention. […] A decrease in the rate of absorbance or fluorescence change in the presence of inhibitor is indicative of enzyme inhibition. Such methods are known to one skilled in the art. The results of this assay are expressed as the inhibitory constant, Ki. […] JT Baker or Fisher Scientific). […] Values of Ki were determined by allowing the protease to react with the substrate in the presence of the inhibitor. Reactions were allowed to go for periods of 20-180 minutes (depending on the protease) and the velocities (rate of absorbance or fluorescence change versus time) were measured.
Consider `N[C@H]1CC[C@H](NC(=O)C2c3cccc(N4CCC(N5CCCC5)CC4)c3CCN2C(=O)/C=C/c2c(-n3cnnn3)ccc(Cl)c2F)CC1` (mixture of isomers) [Example 235], for which affinity was put at a Ki of 74.5 nM. That is a double-digit nanomolar value.
Same read-out and setting: as for `CC(C)NC(=O)C1c2cccc(N3CCC(N4CCCC4)CC3)c2CCN1C(=O)/C=C/c1c(-n2cnnn2)ccc(Cl)c1F` (racemic) [Example 240], the figure is 47.1 nM; as for `CC(C)(C)OC(=O)c1ccc(NC(=O)C2c3cccc(N4CCCN(C(=O)OC(C)(C)C)CC4)c3CCN2C(=O)/C=C/c2c(-n3cnnn3)ccc(Cl)c2F)cc1` (racemic) [Example 257], 2570 nM.
On the same count and under the same terms, under `CCOC(=O)c1ccc(NC(=O)C2c3cccc(N4CCCCC4=O)c3CCN2C(=O)/C=C/c2c(-n3cnnn3)ccc(Cl)c2F)cc1` (racemic) [compound 43] stands 20.6 nM; under `COC(=O)Nc1ccc(NC(=O)C2c3cccc(N4CCNCC4)c3CCN2C(=O)/C=C/c2c(-n3cnnn3)ccc(Cl)c2F)cc1` (stereo not drawn) [Example 4], 10.3 nM.
The same measure, in the same setting: under `CC(C)(C)OC(=O)c1ccc(NC(=O)C2c3cccc(N4CCNCC4)c3CCN2C(=O)/C=C/c2c(-n3cnnn3)ccc(Cl)c2F)cc1` (stereo not drawn) [Example 7] stands 49.7 nM; under `O=C(O)c1ccc(NC(=O)C2c3cccc(N4CCNCC4)c3CCN2C(=O)C=Cc2c(-n3cnnn3)ccc(Cl)c2F)cc1` (stereo not drawn) [Example 13], under 5 nM.

Still in this experiment, the particulars now being: substrate S-2366, activity ranges, Table A.
Regarding `CC(C)(C)OC(=O)CCNC(=O)C1c2cccc(N3CCC(N4CCCC4)CC3)c2CCN1C(=O)/C=C/c1c(-n2cnnn2)ccc(Cl)c1F` (racemic) [Example 230], the Ki (in general, the dissociation constant of the complex between target and ligand, obtained from inhibition or displacement) is 100 to 500 nM.
On the same count and under the same terms, as for `O=C(O)CCNC(=O)C1c2cccc(N3CCC(N4CCCC4)CC3)c2CCN1C(=O)/C=C/c1c(-n2cnnn2)ccc(Cl)c1F` (racemic) [Example 231], the figure is 100 to 500 nM; as for `COC(=O)[C@H]1CC[C@H](NC(=O)C2c3cccc(N4CCC(N5CCCC5)CC4)c3CCN2C(=O)/C=C/c2c(-n3cnnn3)ccc(Cl)c2F)CC1` (mixture of isomers) [Example 232], 5 to 10 nM.
The same measure, in the same setting: under `COC(=O)[C@H]1CC[C@@H](NC(=O)C2c3cccc(N4CCC(N5CCCC5)CC4)c3CCN2C(=O)/C=C/c2c(-n3cnnn3)ccc(Cl)c2F)CC1` (mixture of isomers) [Example 233] stands 5 to 10 nM.
Molecule `O=C(N[C@H]1CC[C@H](C(=O)O)CC1)C1c2cccc(N3CCC(N4CCCC4)CC3)c2CCN1C(=O)/C=C/c1c(-n2cnnn2)ccc(Cl)c1F` (mixture of isomers) [Example 234] displayed a Ki of 5 to 10 nM.
Still for that read-out and setting: as for `O=C(N[C@H]1CC[C@H](O)CC1)C1c2cccc(N3CCC(N4CCCC4)CC3)c2CCN1C(=O)/C=C/c1c(-n2cnnn2)ccc(Cl)c1F` (mixture of isomers) [Example 236], the figure is 5 to 10 nM; as for `COC(=O)N[C@H]1CC[C@H](NC(=O)C2c3cccc(N4CCC(N5CCCC5)CC4)c3CCN2C(=O)/C=C/c2c(-n3cnnn3)ccc(Cl)c2F)CC1` (mixture of isomers) [Example 238], 5 to 10 nM.
The molecule `O=C(NC1CCCCC1)C1c2cccc(N3CCC(N4CCCC4)CC3)c2CCN1C(=O)/C=C/c1c(-n2cnnn2)ccc(Cl)c1F` (racemic) [Example 239] came in with an inhibitory constant (Ki) of under 5 nM.
As for `O=C(O)c1ccc(NC(=O)C2c3cccc(N4CCC5(CC4)OCCO5)c3CCN2C(=O)/C=C/c2c(-n3cnnn3)ccc(Cl)c2F)cc1F` (racemic) [Example 255], the inhibition constant Ki was under 5 nM.
`O=C(O)c1ccc(NC(=O)C2c3cccc(N4CCCNCC4)c3CCN2C(=O)/C=C/c2c(-n3cnnn3)ccc(Cl)c2F)cc1` (racemic) [Example 256]: the Ki was under 5 nM.
In the case of `O=C(O)c1ccc(NC(=O)C2c3cccc(N4CCCCCC4)c3CCN2C(=O)/C=C/c2c(-n3cnnn3)ccc(Cl)c2F)cc1` (racemic) [Example 258], the Ki is under 5 nM.
The same measure, in the same setting: as for `CNC(=O)N1CCCN(c2cccc3c2CCN(C(=O)/C=C/c2c(-n4cnnn4)ccc(Cl)c2F)C3C(=O)Nc2ccc(C(=O)O)cc2)CC1` (racemic) [Example 259], the figure is under 5 nM; as for `CN(C)CCNC(=O)N1CCCN(c2cccc3c2CCN(C(=O)/C=C/c2c(-n4cnnn4)ccc(Cl)c2F)C3C(=O)Nc2ccc(C(=O)O)cc2)CC1` (racemic) [Example 261], under 5 nM.
`CN1CCCN(c2cccc3c2CCN(C(=O)/C=C/c2c(-n4cnnn4)ccc(Cl)c2F)C3C(=O)Nc2ccc(C(=O)O)cc2)CC1` (racemic) [Example 262] gave an inhibition constant Ki of under 5 nM.
Same read-out and setting: under `CN(C)CCN1CCN(c2cccc3c2CCN(C(=O)/C=C/c2c(-n4cnnn4)ccc(Cl)c2F)C3C(=O)Nc2ccc(C(=O)O)cc2)CCC1=O` (racemic) [Example 263] stands under 5 nM.
Still for that read-out and setting: under `CN1CCN(c2cccc3c2CCN(C(=O)/C=C/c2c(-n4cnnn4)ccc(Cl)c2F)C3C(=O)Nc2ccc(C(=O)O)cc2)CCC1=O` (racemic) [Example 264] stands under 5 nM.
The same measure, in the same setting: under `COCCOC1CCN(c2cccc3c2CCN(C(=O)/C=C/c2c(C(C)=O)ccc(Cl)c2F)C3C(=O)Nc2ccc(C(=O)O)cc2)CC1` (racemic) [Example 269] stands under 5 nM.
`CC(=O)c1ccc(Cl)c(F)c1/C=C/C(=O)N1CCc2c(cccc2N2CCCCC2=O)C1C(=O)Nc1ccc(C(=O)O)cc1` (racemic) [compound 38] yielded a Ki of 5 to 10 nM.
The same measure, in the same setting: as for `O=C(Nc1ccc(F)cc1)C1c2cccc(N3CCNCC3)c2CCN1C(=O)/C=C/c1cc(Cl)ccc1-n1cnnn1` (stereo not drawn) [Example 2], the figure is 100 to 500 nM; as for `O=C(O)c1ccc(NC(=O)C2c3cccc(N4CCNCC4)c3CCN2C(=O)/C=C/c2c(-n3cnnn3)ccc(Cl)c2F)cc1` (stereo not drawn) [Example 3], under 5 nM; as for `O=C(Nc1ccc(F)cc1)C1c2cccc(N3CCNCC3)c2CCN1C(=O)/C=C/c1c(-n2cnnn2)ccc(Cl)c1F` (stereo not drawn) [Example 5], 5 to 10 nM.
On the same count and under the same terms, under `N#Cc1ccc(NC(=O)C2c3cccc(N4CCNCC4)c3CCN2C(=O)/C=C/c2c(-n3cnnn3)ccc(Cl)c2F)cc1` (stereo not drawn) [Example 6] stands 5 to 10 nM; under `O=C(Nc1ccccc1)C1c2cccc(N3CCNCC3)c2CCN1C(=O)/C=C/c1c(-n2cnnn2)ccc(Cl)c1F` (stereo not drawn) [Example 8], 5 to 10 nM.
The same measure, in the same setting: as for `O=C(Nc1ccc2cnn(C(=O)OCc3ccccc3)c2c1)C1c2cccc(N3CCNCC3)c2CCN1C(=O)/C=C/c1c(-n2cnnn2)ccc(Cl)c1F` (stereo not drawn) [Example 9], the figure is 5 to 10 nM.
For `CC(C)(C)OC(=O)N1CCN(c2cccc3c2CCN(C(=O)/C=C/c2c(-n4cnnn4)ccc(Cl)c2F)C3C(=O)Nc2ccc3cnn(C(=O)OC(C)(C)C)c3c2)CC1` (stereo not drawn) [Example 10], the Ki fell in the range of 5 to 10 nM.
`O=C(Nc1ccc2cn[nH]c2c1)C1c2cccc(N3CCNCC3)c2CCN1C(=O)/C=C/c1c(-n2cnnn2)ccc(Cl)c1F` (stereo not drawn) [Example 11] displayed a Ki of under 5 nM.
Still for that read-out and setting: under `O=C(O)c1ccc(NC(=O)C2c3cccc(N4CCNCC4)c3CCN2C(=O)C=Cc2c(-n3cnnn3)ccc(Cl)c2F)cc1` (stereo not drawn) [Example 12] stands 5 to 10 nM; under `CN1CCN(c2cccc3c2CCN(C(=O)/C=C/c2c(-n4cnnn4)ccc(Cl)c2F)C3C(=O)Nc2ccc(C(=O)O)cc2)CC1` (stereo not drawn) [Example 18], under 5 nM.
Still for that read-out and setting: under `CN1CCN(c2cccc3c2CCN(C(=O)/C=C/c2c(-n4cnnn4)ccc(Cl)c2F)C3C(=O)Nc2ccc(C#N)cc2)CC1` (stereo not drawn) [Example 20] stands 5 to 10 nM.
Turning to `CCOC(=O)CCNC(=O)N1CCN(c2cccc3c2CCN(C(=O)/C=C/c2cc(Cl)ccc2-n2cnnn2)C3C(=O)Nc2ccc(C(=O)O)cc2)CC1` (stereo not drawn) [Example 21], the Ki was under 5 nM.
The same measure, in the same setting: under `CCOC(=O)CCNC(=O)N1CCN(c2cccc3c2CCN(C(=O)/C=C/c2cc(Cl)ccc2-n2cnnn2)C3C(=O)Nc2ccc(NC(=O)OC)cc2)CC1` (stereo not drawn) [Example 23] stands 5 to 10 nM; under `COC(=O)N1CCN(c2cccc3c2CCN(C(=O)/C=C/c2c(-n4cnnn4)ccc(Cl)c2F)C3C(=O)Nc2ccc(F)cc2)CC1` (stereo not drawn) [Example 25], 5 to 10 nM; under `COC(=O)N1CCN(c2cccc3c2CCN(C(=O)/C=C/c2c(-n4cnnn4)ccc(Cl)c2F)C3C(=O)Nc2ccc(C#N)cc2)CC1` (stereo not drawn) [Example 26], 5 to 10 nM.
Still for that read-out and setting: under `CN1CCN(c2cccc3c2CCN(C(=O)/C=C/c2c(-n4cnnn4)ccc(Cl)c2F)C3C(=O)Nc2ccc3cn[nH]c3c2)CC1` (stereo not drawn) [Example 27] stands under 5 nM; under `NCc1ccc(Cl)cc1/C=C/C(=O)N1CCc2c(cccc2N2CCNCC2)C1C(=O)Nc1ccc(C(=O)O)cc1` (stereo not drawn) [Example 32, (E)-4-(2-(3-(2-(Aminomethyl)-5-chlorophenyl)acryloyl)-5-(piperazin-1-yl)-1,2,3,4-tetrahydroisoquinoline-1-carboxamido)benzoic acid, tri TFA Salt], 100 to 500 nM.
Same read-out and setting: under `CC(C)(C)OC(=O)c1ccc(NC(=O)[C@@H]2c3cccc(N4CCOCC4=O)c3CCN2C(=O)/C=C/c2c(-n3cnnn3)ccc(Cl)c2F)cc1` [Example 50] stands 100 to 500 nM; under `CN1CCN(c2cccc3c2CCN(C(=O)/C=C/c2c(-n4cnnn4)ccc(Cl)c2F)C3C(=O)Nc2ccc(C(=O)OC(C)(C)C)cc2)C(=O)C1` (stereo not drawn) [Example 57, (E)-tert-butyl 4-(2-(3-(3-chloro-2-fluoro-6-(1H-tetrazol-1-yl)phenyl)acryloyl)-5-(4-methyl-2-oxopiperazin-1-yl)-1,2,3,4-tetrahydroisoquinoline-1-carboxamido)benzoate], 5 to 10 nM; under `O=C(O)c1ccc(NC(=O)C2c3cccc(N4CCNCC4)c3CCN2C(=O)/C=C/c2cc(Cl)c(F)cc2-n2cnnn2)cc1` (stereo not drawn) [Example 65, (E)-4-(2-(3-(5-chloro-4-fluoro-2-(1H-tetrazol-1-yl)phenyl)acryloyl)-5-(piperazin-1-yl)-1,2,3,4-tetrahydroisoquinoline-1-carboxamido)benzoic acid, bis TFA Salt], 5 to 10 nM.

The values above are taken from US10208021B2, “Substituted tetrahydroisoquinoline compounds as factor XIa inhibitors” (BRISTOL-MYERS SQUIBB COMPANY, priority 2011, dated 2019).
